Data on 1 compound can be found in publication PMC12520456, “Regulating Enzyme Activity via Microaggregates Mediated by Phase Separation” (Advanced Science, 2025).

In one series the test system is IgG. The series is described as follows: Fluorescence anisotropy specificity test. The settings on record: fluorescently labeled DPMD; Figure S3I. Type of series: binding. How it is done: (§1) To validate the design, DPMD was synthesized using solid‐phase synthesis employing HOBt/HBTU and Fmoc chemistry, following a sequence schematic diagram depicted in Figure 1A. Subsequently, a single reverse column purification by High‐performance liquid chromatography (HPLC) yielded DPMD with purity exceeding 95% at a yield surpassing 60% (Figure S1B, Supporting Information). Circular dichroism (CD) spectra were recorded for a 40 µM DPMD sample in an aqueous solution containing 20% TFE at room temperature. The use of 20% TFE was necessary to obtain a clear spectrum, as it enhances peptide solubility and stabilizes secondary structure.^[ [9] ^] […] To further confirm that DPMD's enzymatic targeting is specific and not a broad‐spectrum protein aggregation effect, we tested DPMD against other pancreatic enzymes and abundant plasma proteins. Fluorescently labeled DPMD was mixed with elastase, pancreatic lipase, α‐amylase, carboxypeptidase A, bovine serum albumin (BSA), and IgG, respectively, and fluorescence anisotropy was measured to detect binding. […] For example, anisotropy values for DPMD + elastase (or lipase, amylase, etc.) remained near the baseline (DPMD‐alone) level, whereas DPMD + trypsin produced a pronounced anisotropy elevation (reflecting peptide‐enzyme complex formation and microaggregate assembly).
(§2) Figure S3. […]
(§3) (D-H) The fluorescent anisotropy
(§4) evaluation of binding affinity between DPMD peptide with elastase (D), lipase (E), amylase(F), carboxypeptidase
(§5) (G), albumin (H) and immunoglobulins (I). […]

Series [1] concerns the target T1, bovine serum albumin (BSA) (Bos taurus, UniProt P02769).
T1 construct: purchased Psaitong Biotechnology
The series can be described thus: Fluorescence anisotropy specificity test. The conditions noted are these: fluorescently labeled DPMD; Figure S3H. It is filed as binding. The procedure: as §1, §2, §3, §4, §5
For orientation: Polarisation of emitted light reports the rotation of a fluorescent probe.

The target of another series is T2, elastase (Sus scrofa, UniProt P00772).
T2 construct: purchased Sangon
The series is described as follows: Fluorescence anisotropy specificity test. The settings on record: fluorescently labeled DPMD; Figure S3D. It is filed as binding. How it is done:
as §1, §2, §3, §4, §5

Another series concerns α-amylase. The series is described as follows: Fluorescence anisotropy specificity test. Type of series: binding. The settings on record: fluorescently labeled DPMD; Figure S3F. The procedure:
as §1, §2, §3, §4, §5

Series [2] concerns postoperative pancreatic fistula (POPF). The series is described as follows: Rat pancreatic common duct transection (lethal) POPF model. Type of series: in vivo. The procedure:
In order to challenge the efficacy of DPMD in emergency treatments for POPF, a lethal rat model of POPF was established through transection of the main pancreatic duct. After 8 h post‐surgical modeling, evidence of severe POPF was observed through the presence of leaky Chymotrypsin (Figure S11, Supporting Information). At this critical juncture, DPMD, LPMD or an equal volume normal saline solution were administered via syringe injection into the abdominal cavity near the pancreas. […] Consequently, all […] rats subjected to the mock treatment succumbed to three days post‐surgical modeling, while LPMD only extended the median survival from 2 days in Ctrl to 3 days in LPMD (Figure 4D). […] Furthermore, both DPMD and LPMD treatments decreased inflammation markers including TNF‐α, IL‐6, IL‐8, IL‐33 sST2, CRP, HMGB1, MPO, PAF, PCT, PGE2 and SAA present in rat serum (Figure 4G).
Without damaging the surrounding pancreatic tissue and capillaries, a transverse incision on the pancreatic splenic duct was performed using micro-scissors. Successful modelling is confirmed by observing external leakage of pancreatic fluid. Place a self-made drainage tube into the rat's abdominal cavity with its outlet positioned at the site of the transected splenic duct, then exit through the abdominal wall and fix it there.
3.14 Construction of rat pancreatic common duct transection model
Animal studies were performed according to the protocols approved by the Institution Guidelines and were approved by the Laboratory Animal Center of Xijing Hospital of The Fourth Military Medical University (No. IACUC-20220308). ALL rats were purchased from the Laboratory Animal Center of The Fourth Military Medical University. The rats were housed under standard specific pathogen-free conditions with a 12h–12h light–dark cycle.
The preoperative preparation and postoperative care for the rat model were consistent with those of the rat pancreatic splenic duct transection pancreatic fistula model, except for the transecting of the pancreatic common duct of the pancreas in modeling. A custom-made drainage tube outlet was positioned around the area where the pancreatic common duct was transected.
3.15 Evaluation of the effect of DPMD on pancreatic duct transection model The male SD rats were randomly assigned to six rats in each group. Prepare a pancreatic duct transection model with a pancreatic fistula and apply 0.3 mL of normal saline, 0.3 ml of DPMD, and 0.3 mL of LPMD at the incision site. After 3days, administer 3 mL of MeO-Succ-Arg-Pro-Tyr-AMO solution (ATT Bioquest) to the pancreatic stump and surrounding tissues for fluorescence imaging in real-time under dark field conditions while using an API filter. Blood and ascitic fluid

A short description of series [3]: In vivo safety after intraperitoneal injection. Also noted: species or system rat. The source says: For in vivo safety, rats receiving an intraperitoneal injection of DPMD were monitored for systemic toxicity and immune response. […] The heart and spleen likewise appeared normal, with no myocardial inflammation or splenic white pulp enlargement (Figure 5G,H). […] We acknowledge that longer‐term studies will be needed, but these initial results support the biosafety of DPMD as a therapeutic agent.
Figure 5 The favorable biosafety and biocompatibility of DPMD. A) The schematic diagram of therapeutic safety benefited from the DPMD. B&C) The blood corpuscle counting and immunotoxicity‐related blood biochemical indexes of rats treated with the DPMD or PBS using intraperitoneal administration. D) Hepatotoxicity measured by pathological section of liver, ALT (glutamic‐pyruvic transaminase), AST (glutamic‐oxalacetic transaminase), total bilirubin (TBIL) and inflammatory cytokines (IL‐6, TNF‐α, MCP‐1and NF‐κB) of liver. E) Nephrotoxicity test, including pathological section of kidney, CR (creatinine), BUN (Blood Urea Nitrogen), albumin (ALB) and inflammatory cytokines (IL‐6, TNF‐α, MCP‐1and NF‐κB) of kidney. […] G) Cardiotoxicity reflected by pathological section and inflammatory cytokines (IL‐6, TNF‐α, MCP‐1and NF‐κB) infiltrating in heart. H) The H&E staining of spleen sections, and IL‐6, TNF‐α, MCP‐1and NF‐κB cytokines were involved in safety detection of DPMD or PBS in spleen. The data from each group were presented as the mean ± SD. Scale bar: 100 µm. Statistical analysis in B‐G was performed using unpaired t‐test.

Setting [4] is: intraperitoneal injection, 7 days post-treatment.

Non-standard residues stand in square brackets, D forms with d. Residues, ends and D or L forms follow the SMILES beside them.

T1 sequence (P02769 25-607): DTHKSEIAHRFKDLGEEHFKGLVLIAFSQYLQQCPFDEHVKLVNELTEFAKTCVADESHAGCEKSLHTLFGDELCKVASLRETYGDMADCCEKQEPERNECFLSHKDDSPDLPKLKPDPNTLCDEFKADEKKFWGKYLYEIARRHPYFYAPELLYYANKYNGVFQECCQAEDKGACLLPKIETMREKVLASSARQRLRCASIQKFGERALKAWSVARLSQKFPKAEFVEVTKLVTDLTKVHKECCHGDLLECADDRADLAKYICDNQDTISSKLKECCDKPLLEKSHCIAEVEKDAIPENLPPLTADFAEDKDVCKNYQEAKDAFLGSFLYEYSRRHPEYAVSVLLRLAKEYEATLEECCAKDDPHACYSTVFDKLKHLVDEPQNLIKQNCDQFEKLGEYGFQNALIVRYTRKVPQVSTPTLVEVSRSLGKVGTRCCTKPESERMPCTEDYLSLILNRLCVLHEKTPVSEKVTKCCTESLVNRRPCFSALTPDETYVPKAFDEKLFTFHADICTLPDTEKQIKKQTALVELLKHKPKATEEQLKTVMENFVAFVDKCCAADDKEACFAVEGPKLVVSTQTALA
T2 sequence (P00772 27-266): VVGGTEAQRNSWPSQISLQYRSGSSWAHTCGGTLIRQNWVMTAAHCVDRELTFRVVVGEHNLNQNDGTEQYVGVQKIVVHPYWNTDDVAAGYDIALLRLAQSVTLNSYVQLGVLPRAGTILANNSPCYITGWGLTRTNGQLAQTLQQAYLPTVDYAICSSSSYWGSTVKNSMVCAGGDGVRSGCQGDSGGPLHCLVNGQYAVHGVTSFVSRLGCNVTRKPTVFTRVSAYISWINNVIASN

As for `CC[C@@H](C)[C@@H](NC(=O)[C@@H](CCC(N)=O)NC(=O)[C@H](NC(=O)[C@@H](Cc1ccc(O)cc1)NC(=O)CNC(=O)[C@@H](CC(C)C)NC(=O)[C@H](NC(=O)[C@@H](CO)NC(=O)CNC(=O)[C@@H](C)NC(=O)[C@@H](CC(=O)O)NC(=O)[C@@H](C)NC(=O)[C@@H](CCCNC(=N)N)NC(=O)[C@@H](C)NC(=O)[C@@H](CC(=O)O)NC(=O)[C@@H](C)NC(=O)[C@@H](CCCNC(=N)N)NC(=O)[C@@H](C)NC(=O)[C@@H](CC(=O)O)NC(=O)[C@@H](C)NC(=O)[C@@H](CCCNC(=N)N)NC(=O)[C@@H](C)NC(=O)[C@@H](CC(=O)O)NC(=O)[C@@H](C)NC(=O)[C@H](N)CCCNC(=N)N)C(C)C)[C@H](C)CC)C(=O)N[C@H](CCCNC(=N)N)C(=O)O` [DPMD, Ac‐(D‐RADA)4‐CONH2] (H-[dR][dA][dD][dA][dR][dA][dD][dA][dR][dA][dD][dA][dR][dA][dD][dA]G[dS][dV][dL]G[dY][dI][dQ][dI][dR]-OH; N-terminus and C-terminus assumed), the β-sheet content was determined as 33.9%. Besides, the “anisotropy increase with IgG” value in the series with IgG was “no significant anisotropy increase”. Also, the “anisotropy increase with BSA” value in series [1] is recorded as “no significant anisotropy increase”. Also, the “anisotropy increase with elastase” value on elastase is “no significant anisotropy increase”. Besides, the “anisotropy increase with α-amylase” value in the series with α-amylase was “no significant anisotropy increase”. The “chymotrypsin leakage by fluorescence imaging” value in series [2] (3 day after treatment, laparotomy, Figure 4B) was “halted the leakage almost entirely”. Further, the “ascitic and serum amylase and lipase levels” value in series [2] (compared to mock treatment, Figure 4C) is listed as “statistically significant reduction”. The “deaths during the seven-day observation period” value in series [2] (injection into abdominal cavity 8 h after modeling, all eight mock-treated rats died within three days) is “none of the rats treated with DPMD died”. Besides, the “H&E staining of pancreatic tissue” value in series [2] (three days after surgery, Figure 4E) was “reduced edema and inflammatory cell infiltration”. In series [2] (within 7 days after surgery, Figure 4G), the “serum inflammation markers (TNF-α, IL-6, IL-8, IL-33, sST2, CRP, HMGB1, MPO, PAF, PCT, PGE2, SAA)” value is “decreased”. Further, in series [3] (setting [4]), the “blood cell counts (red and white cells, platelets)” value is given as “remained within normal limits”; the “liver function tests (ALT, AST, total bilirubin) and kidney function markers (creatinine, BUN, albumin)” value is given as “no signs of organ damage or dysfunction”; the “serum pro-inflammatory cytokine levels (IL-6, TNF-α, MCP-1, NF-κB)” value was “indistinguishable from saline‐treated controls”. The “histopathological examination of major organs” value in series [3] (liver, kidney, lung, heart, spleen, H&E) is “no microscopic evidence of toxicity”.
